Reference: patent US20240336617A1, “Substituted Bimane Compounds and Methods of Use Thereof” (THE TRUSTEES OF THE UNIVERSITY OF PENNSYLVANIA, priority 2023, published 2024)
Entries after “also recorded” stand apart in the source; their conditions may differ. Like-named read-outs stand apart in the source and are kept apart here.

Key:
αS fibrils [1] = biological target: T1, αS fibrils (Homo sapiens, UniProt P37840); experiment: Fluorescence spectra with αS fibrils; type: binding
T1 construct: intein-His6 (C, cleaved yes); made in house; host or cells: Escherichia coli BL21
Experimental: Fluorescence measurements were performed using a PTI QuantaMaster™ 40 fluorescence spectrometer. Fluorescence spectra of 10 μM probes (concentrated stock solution prepared as 10 mM in DMSO) (7b, 7c, 7d, 7e, 7f, 7g and 7h) in PBS buffer were measured by excitation at their absorbance maximum wavelength in the absence and presence of 50 μM αS fibrils (stock solution 100 μM αS fibrils in PBS buffer).
Fluorescence spectra with αS fibrils. Fluorescence measurements were performed using a PTI QuantaMaster 40 fluorescence spectrometer. Fluorescence spectra of 10 μM probes (concentrated stock solution prepared as 10 mM in DMSO) (5b-5f and 5h) in PBS buffer were measured by excitation at their absorbance maximum wavelength in the absence and presence of 50 μM αS fibrils (stock solution 100 μM αS fibrils in PBS buffer). […] FIGS. 77A-77F show fluorescence spectra of probes (5b-5f and 5h) with and without αS fibrils. Final concentrations of probes and αS fibrils were 10 μM and 50 μM, respectively. Emission spectra collected at each dye's maximum absorption wavelength. Ex/Em slit widths: 3 nm/3 nm. […] Absorbance is shown in FIG. 78A and FIG. 78B, whereas FIG. 78C and FIG. 78D show excitation spectra of probes 5j and 5k with and without αS fibrils. Final probe and fibrils concentrations were 10 μM and 50 μM, respectively. […] Emission wavelengths were 575 nm for 5j, 580 nm for 5k. Ex/Em slit widths: 3 nm/3 nm. […] Black line indicates incident light (αS fibrils without probe) and blue line indicates sample (αS fibrils with probe). Excitation at λexc=435 nm for 5j and λexc=463 nm for 5k and spectral collection (400-800 nm). Final concentrations of the probe and αS fibrils are the 100 μM. Ex/Em slit widths: 5 nm/5 nm.

[2] = Absorbance measurements (UV-Vis); details: for Abs. λabs: 25 μM
Experimental: Samples were individually diluted to the final concentration of 25 μM (500 μL) using 50:50 acetonitrile in phosphate buffered saline (ACN/PBS). The absorbance spectrum of each derivative (150 μL) was measured on a Thermo Scientific Genesys 150 UV-Vis spectrometer, using 50:50 ACN/PBS as a blank.

αS fibrils [3] = biological target: T1, αS fibrils; experiment: Competition binding with ThT on αS fibrils
[4] = Molar absorptivity determination; type: physicochemical;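 also: molar absorptivity derived from UV-Vis absorbance spectra recorded for each derivative on a spectrometer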
Experimental: The absorbance spectrum of each derivative (150 μL) was measured on a Thermo Scientific Genesys 150 UV-Vis spectrometer, using 50:50 ACN/PBS as a blank.
Molar absorptivity determination. […] The absorbance spectrum of each derivative (150 μL) was measured on a Thermo Scientific Genesys 150 UV-Vis spectrometer, using 50:50 ACN/PBS as a blank.

Aβ1-42 fibrils = biological target: T2, Aβ1-42 fibrils (Homo sapiens, UniProt P05067); experiment: Fluorescence and excitation spectra with Aβ1-42 fibrils; type: binding
T2 construct: The β-amyloid (1-42) peptide, human; purchased Genscript RP10017
T2 sequence (P05067 672-713): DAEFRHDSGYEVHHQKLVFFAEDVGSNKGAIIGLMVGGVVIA
Experimental: Fluorescence measurements were performed using a PTI QuantaMaster™ 40 fluorescence spectrometer. Fluorescence spectra of 10 μM probes (concentrated stock solution prepared as 10 mM in DMSO) (7j, 7k, 7l, 7m, and ThT) in PBS buffer were measured in the absence and presence of 50 μM Aβ1-42 fibrils (stock solution 1 mM Aβ1-42 in 10 mM phosphate buffer, pH 7.4).
Excitation spectral measurements were performed using a PTI QuantaMaster™ 40 fluorescence spectrometer. Excitation spectra of 10 μM probes (concentrated stock solution prepared as 10 mM in DMSO) (7j, 7k, 7l, 7m, and ThT) in PBS buffer were measured in the absence and presence of 50 μM Aβ1-42 fibrils (stock solution 1 mM Aβ1-42 in phosphate buffer).
Fluorescence measurements were performed using a PTI QuantaMaster™ 40 fluorescence spectrometer. Fluorescence spectra of 10 μM probes (concentrated stock solution prepared as 10 mM in DMSO) (5j, 5k and ThT) in PBS buffer were measured in the absence and presence of 50 μM Ab1-42 fibrils (stock solution 1 mM Ab1-42 in 10 mM phosphate buffer, pH 7.4).
Excitation spectral measurements were performed using a PTI QuantaMaster 40 fluorescence spectrometer. Excitation spectra of 10 μM probes (concentrated stock solution prepared as 10 mM in DMSO) (5j, 5k and ThT) in PBS buffer were measured in the absence and presence of 50 μM Ab1-42 fibrils (stock solution 1 mM Ab1-42 in phosphate buffer). […]

[5] = Fluorescence (emission) measurements; type: physicochemical;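 also: fluorescence emission spectra recorded on a spectrofluorometer, with each compound excited at its own absorption maximum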
Experimental: The fluorescence spectrum of each derivative (150 μL) was measured on a Photon Technology International (PTI) QuantaMaster™ 40 fluorescence spectrometer by excitation at the maximum absorption wavelength for each compound.
The fluorescence spectrum of each derivative (150 μL) was measured on a Photon Technology International (PTJ) QuantaMaster™ 40 fluorescence spectrometer by excitation at the maximum absorption wavelength for each compound.

[6] = Fluorescent quantum yield (QY) measurements; type: physicochemical
Experimental: For each QY measurement, the incident excitation light spectrum was collected with 1 mL of solvent. […] Using the JASCO Quantum Yield Software, the dye QY was calculated by dividing the dye fluorescence intensity by the difference in incident light intensity in the presence and absence of dye. The minimum excitation wavelength for a full excitation incident spectrum using this setup is 360 nm.
Fluorescent quantum yield (QY) measurements. For each QY measurement, the incident excitation light spectrum was collected with 1 mL of solvent. After measuring the incident light intensity, dye (3 and 5a-5k) was added to the solvent from a concentrated stock solution to a final concentration of […] and the new spectrum (fluorescence intensity and new incident light intensity) was collected. Using the JASCO Quantum Yield Software, the dye QY was calculated by dividing the dye fluorescence intensity by the difference in incident light intensity in the presence and absence of dye. The minimum excitation wavelength for a full excitation incident spectrum using this setup is 360 nm.

[7] = tested on: αS fibrils versus tau fibrils; experiment: Amyloid selectivity by plate reader, αS versus tau fibrils; type: binding
Experimental: Experiments were performed on the Tecan Spark in Greiner 96 well flat black ½ area plates using the following parameters: excitation and emission band widths 5 nm, lag time 0 μs, integration time 40 μs. A 10 mM DMSO stock solution of probes (7j-7m) and 100 μM stock of αS fibrils were used in the study described herein.

[8] = biological target: T3, amplified αS fibrils (AFs) from AD patient brain extracts (Homo sapiens, UniProt P37840); experiment: Fluorescence measurements with AD patient cases (lysate, AFs, PFFs); type: binding; details: lysate or AFs and probe 1 μM
T3 construct: made in house; host or cells: recombinant αS monomer, seeded with sarkosyl-insoluble extract of human frontal cortex (AD or PDD)
Experimental: All procedures were performed in accordance with local institutional review board guidelines. Written informed consent for autopsy and analysis of tissue sample data was obtained either from patients themselves or their next of kin. Frozen postmortem human frontal cortex brain tissues from three patients diagnosed with Alzheimer's disease (AD) and three patients diagnosed with Parkinson's disease with dementia (PDD) were selected for sequential extraction of αS aggregates based on a high burden of αS pathology determined by immunohistochemical staining. […] These final sarkosyl-insoluble fractions are referred to as “brain extracts.: The amount of αS in the brain extracts was determined by sandwich ELISA using Syn9027, a mono-clonal antibody (Mab) to αS, and the protein concentrations were examined by bicinchoninic acid (BCA) assay. […]
(§1) Brain-derived αS aggregates in extract samples from three AD and three PDD cases (FIG. 38A) were used as seeds for templated aggregation of recombinant αS monomer. […] After seven days of incubation, amplification progress was determined by removing an aliquot and diluting tenfold in DPBS to a final αS concentration of 3.5 μM. […] Equal volumes of supernatant and pellet fractions were analyzed on SDS-PAGE gels and Western blot, with amplified aggregates migrating to the pellet fraction (FIG. 38B). […]

[9] = background statement; cited from earlier work
[10] = biological target: T4, amplified αS fibrils (AFs) from PDD patient brain extracts (Homo sapiens, UniProt P37840); experiment: Fluorescence measurements with PDD patient cases (lysate, AFs, PFFs); type: binding; details: lysate or AFs and probe 1 μM
T4 construct: made in house; host or cells: recombinant αS monomer, seeded with sarkosyl-insoluble extract of human frontal cortex (AD or PDD)
Experimental: All procedures were performed in accordance with local institutional review board guidelines. Written informed consent for autopsy and analysis of tissue sample data was obtained either from patients themselves or their next of kin. Frozen postmortem human frontal cortex brain tissues from three patients diagnosed with Alzheimer's disease (AD) and three patients diagnosed with Parkinson's disease with dementia (PDD) were selected for sequential extraction of αS aggregates based on a high burden of αS pathology determined by immunohistochemical staining. In brief, 5-10 g of frontal cortical gray matter were homogenized in five volumes (W/V) of high-salt (HS) buffer (50 mM Tris-HCl pH 7.4, 750 mM NaCl, 10 mM NaF, 5 mM EDTA) with protease and protein phosphatase inhibitors, incubated on ice for 20 min and centrifuged at 100,000×g for 30 min. The pellets were then re-extracted with HS buffer, followed by sequential extractions with five volumes of 1% Triton X-100-containing HS buffer and 1% Triton X-100-containing HS buffer with 30% sucrose. The pellets were then re-suspended and homogenized in 1% sarkosyl-containing HS buffer, rotated at room temperature for 2 h or at 4° C. overnight and centrifuged at 100,000×g for 30 min. […] These final sarkosyl-insoluble fractions are referred to as “brain extracts.: The amount of αS in the brain extracts was determined by sandwich ELISA using Syn9027, a mono-clonal antibody (Mab) to αS, and the protein concentrations were examined by bicinchoninic acid (BCA) assay. […]
as §1

(E)-3-(4-(dimethylamino)styryl)-2,5,6-trimethyl-1H,7H-pyrazolo[1,2-a]pyrazole-1,7-dione [Compound 7l]
concentration-dependent shift in the emission maximum with αS fibrils (αS fibrils [1]): binding at limited sites with high affinity
Absorbance Wavelength ([2]; ACN:PBS buffer (50:50 v/v), Table 11): 385 nm
competition with ThT on αS PFFs (αS fibrils [3]): displacement of the known amyloid-binding dye ThT

Cc1c(C)n2c(/C=C/c3nc4ccc(N(C)C)cc4s3)c(C)c(=O)n2c1=O [Compound 8f, (E)-3-(2-(6-(dimethylamino)benzo[d]thiazol-2-yl)vinyl)-2,5,6-trimethyl-1H,7H-pyrazolo[1,2-a]pyrazole-1,7-dione]
ε ([4]; ACN only): 25212 M⁻¹ cm⁻¹
ε ([4]; ACN:PBS (50:50 v/v)): 22370 M⁻¹ cm⁻¹
Abs. λabs ([2]; ACN only): 435 nm
Abs. λabs ([2]; ACN:PBS (50:50 v/v)): 447 nm
fluorescence turn on with Aβ1-42 fibrils (Aβ1-42 fibrils): high turn on of fluorescence in the presence of PFFs; also recorded: selective fluorescence increases in the presence of Aβ1-42 fibrils
Stokes shift ([5]; ACN only): 189 nm
Em. λem ([5]; ACN only, 25 μM): 624 nm
Stokes shift ([5]; ACN:PBS (50:50 v/v)): 195 nm
Q.Y. ([6]; ACN only): 44.2%
Q.Y. ([6]; ACN:PBS (50:50 v/v)): 0.77%

Cc1ccc2c(c1)sc(-c1ccc(N(C)C)cc1)[n+]2C.[Cl-] [ThT, Thioflavin-T, reference compound]
turn on with αS and tau fibrils [7]: high turn on with both αS and tau; also recorded: high turn-on with both αS and tau
fluorescence detection of AD amplified fibrils (AFs) [8]: barely registers significance for detection of AFs in AD samples
Stokes shift [9]: ~50 nm
fluorescence detection of PDD amplified fibrils (AFs) [10]: does not effectively detect these amplified fibrils; also recorded: unable to differentiate the lysates and AFs of PDD samples
